We go through three molecules from US20230345940A1, “INSECTICIDE” (Western Sydney University, priority 2020, published 2023).

Holding throughout (type): in vivo
Data set [1] concerns Aphis gossypii adults and nymphs. The data set is described as follows: Field trial on cotton crop. The note with it: extract at 1.0%, clothianidin at 125 mL/ha. As to the method:
A trial was conducted on an irrigated commercial Bollgard II cotton crops (Sicot 74 variety) at the Australian Cotton Research Institute (ACM) in Narrabri NSW, Australia. The cotton crop used for the study comprised mature plants close to cut-out and were contaminated with Aphis gossypii from infested leaves collected from a nearby commercial cotton field at Yarral, Narrabri NSW, Australia.
[…] Each replicated plot measured 2 m (2 rows) wide and 1 m long with 2 m (rows) buffer between replicated plots. Three plants in each treatment replicate with terminals infested with aphids were randomly selected and terminals tagged for pre- and post-treatment assessments.
The control was sprayed with 100 ppm Triton-X 100 in water only.
Foliar application of each treatment was performed, applying the control first, then the plant extract, and finally the industry standard. Each treatment was applied to run-off using a small hand-held pressure sprayer fitted with flat fan nozzles delivering a droplet size of 200 μm (equivalent to field application of 100 L/ha). The decision to apply the treatment was made based on the IPM Guidelines and CottonLogic recommended economic threshold of 50% of plant terminals infested.
The number of A. gossypii and beneficial species (mainly predatory insects) were assessed by visually counting A. gossypii adults and nymphs and beneficials on the upper and undersides of leaves from the 3-4 nodes below the tagged plant terminals. Pre-treatment counts were made 24 h before treatment and post treatment counts on 1, 2, 5, 6, 7, 8, 9, 12 and 14 days after treatment (DAT).
The data for both A. gossypii adults and nymphs as well as predatory insects were each initially expressed as numbers per terminal. Data were calculated as percentage reduction of population compared to the pre-treatment count.
Means of data on population reduction were compared using one-way ANOVA, after confirming normality, using SPSS v21. Significance was normally set at 5% (α=0.05), and when there was significance, means were separated using Duncan's Multiple range test.

Data set [2] relates to neonate Helicoverpa armigera. The data set is described as follows: Potter spray tower bioassay on leaf discs, Helicoverpa neonates. The note with it: 1.0% w/v; for mortality at 1 % strength: Helicoverpa armigera, foliar. From the text: Helicoverpa armigera (Hubner) (Lepidoptera: Noctuidae), commonly known as the cotton bollworm or as heliothis, is a widespread species, with an extensive host range (see, e.g., https://www.cabi.org/isc/datasheet/26757). It typically feeds selectively on high protein plant parts, such as flowers, buds and fruits. Helicoverpa armigera was obtained as fresh eggs from AgBiTech Pty. Ltd, Glenvale QLD, Australia, or CSIRO Agriculture and Food, Cotton Research Institute, Myall Vale NSW, Australia.
Eggs (50-75) were transferred with a fine camel hair brush onto 90 mm Whatman No. 1 filter paper partially moistened with distilled water and thin slices from the artificial medium supplied by AgBiTech were placed on the filter paper as a source of food for the hatching caterpillars. The eggs were left to hatch under laboratory conditions of 25±3° C. and 65±10% RH. Hatching occurred within 24 h and bioassays were carried out on neonate larvae with an average weight of […].
For Helicoverpa, neonate larvae 4-12 h after hatching were transferred individually to a cotton plant leaf disc (35 mm diameter) mounted with its lower side uppermost on 1% agar in an Easy Grip Tissue Culture Dish dimensions 35×10 mm (Corning Incorporated, Corning NY, USA). […] Thus, each replicate comprised 4 neonates.
Following spraying, the small dishes were covered with a perforated plastic sheet and then placed in plastic insect cages previously described for aphid bioassays. The number of dishes sprayed per sample was 4-10. Dishes were retained under laboratory conditions (24±2° C., 50±15% RH) for post-treatment observations. Mortality counts were conducted at 24 and 48 HAT. Absence of the caterpillar movement when prodded with a fine brush was taken as the criterion of death.
(§1) For each batch of investigations, control treatments were conducted, with methodology identical to other treatments. The control treatment solutions comprised 3 mL aliquots of 200 ppm Triton X-100 in distilled water and acetone or hexane at the same concentration as the test solutions. Investigations were discarded if control mortality exceeded 15%. Treatment mortality was calculated and is presented as corrected mortality, to account for any control mortality (Abbott WS., A method of computing the effectiveness of an insecticide. Journal of Economic Entomology, 18, 265-267, 1925).

In data set [3] the test system is two-spotted spider mite (TSM), Tetranychus urticae Koch. The data set can be described thus: Potter spray tower bioassay on leaf discs, two-spotted spider mite. The note with it: 1.0% w/v; for mortality at 1 % strength: Tetranychus urticae, foliar.
From the text: Tetranychus urticae Koch, (Acari: Tetranychidae), commonly known as two-spotted spider mite is a cosmopolitan, phytophagous species, and an important agricultural pest in many temperate and sub-tropical countries. It is highly polyphagous, and feeds primarily on plant foliage. Tetranychus urticae Koch UWS 1 (organophosphate-susceptible) strain, originally obtained from Dr Grant Herron, NSW
Department of Primary Industries, Menangle NSW, Australia, but had been maintained at WSU Hawkesbury campus for approximately 18 years. They were reared on potted French beans, Phaseolus vulgaris var Redland Pioneer (in a constant temperature room maintained at 25±2° C., 65±5% RH and 14 h D: L photoperiod. The culture was reared on potted dwarf French bean (Phaseolus vulgaris L. var. Redland Pioneer) plants grown in a composted pinebark-based potting medium in a large (7.0 m (1)×6.0 m (w)×4.0 m (h)), pesticide-free, constant temperature room (28-30° C., 50% RH, 18:6, D:L). Only young gravid female two-spotted mites were selected for bioassay.
For the two-spotted spider mite, screening of each sample was conducted on 20-40 adult female mites, which were evenly distributed on 1-3 French bean leaf discs (25 mm diam.) contained in 90 mm diameter Petri dishes. The leaf discs were placed with their underside uppermost on moist absorbent cotton wool. Water was added to the dishes daily to prevent desiccation of the leaf discs and preventing the mites from escaping the leaf disc.
A 3.0 mL aliquot was applied to each Petri dish with a Potter precision spray tower as described by Herron et al., Potter spray tower bioassay of selected citrus pests to petroleum spray oil, Journal of the Australian Entomological Society 34, 253-263, 1995.
The average weight of the solution sprayed on each dish was calculated to be 5.385 mg/cm^2 or 0.05385 mg/cm^2 active ingredient (a.i.). Dishes were retained under laboratory conditions (24±2° C., 50±15% RH) for post-treatment observations. Mortality was recorded 24 h and 48 h after treatment (HAT). Death was recognised by the absence of movement when the test organisms were mechanically stimulated by prodding with a brush.
as §1

In data set [4] the test system is cotton aphid, Aphis gossypii. The data set can be described thus: Potter spray tower bioassay on leaf discs, cotton aphid. The following applies: 1.0% w/v.
Procedure: Aphis gossypii (susceptible strain) (Hemiptera: Aphididae), was established as a culture from material supplied by Dr Grant Herron, NSW Department of Primary Industries, Menangle NSW, Australia. Aphids were reared on potted Gossypium hirsutum L. (Malvaceae) grown from non-insecticide-treated conventional cotton seed, supplied by Dr Robert Mensah, NSW Department of Primary Industries, Narrabri NSW, Australia. The culture was maintained in a temperature-controlled greenhouse chamber set at 27±3° C. and 55±10% RH (relative humidity) and natural light. Only young adult females were selected for bioassay.
For the cotton aphid, parthenogenetic adult female aphids were collected from the cultures on cotton plants. Fifteen adults were transferred using a fine camel hair brush onto the lower side of a respective leaf disc 50 mm diameter mounted on 1.0% w/v agar in a plastic insect cage measuring 50 mm diameter×15 mm height plastic insect breeding 50 mm diameter×15 height (SPL Life Sciences, Korea).
Aliquots (3 mL) of the 1% w/v extracts were applied with a Potter Spray Tower for each treatment, as described above, and the spray was allowed to partially dry before the cage was covered with its lid and the sides of the cage sealed with Parafilm M®.
Dishes were retained under laboratory conditions (24±2° C., 50±15% RH) for post-treatment observations. […]

Several values for one entry are separate records, joined by “and”; a condition that tells them apart may be missing. Identical values can stand only once. Like-named read-outs stand apart in the source and are kept apart here.

On to `CN/C(=N\[N+](=O)[O-])NCc1cnc(Cl)s1` [Clothianidin], for which, in data set [1] (mean of plots 1-4), the “% Reduction from pre-treatment count, Mean of plots, 1 DAT” value is reported as 54.65%; the “% Reduction from pre-treatment count, Mean of plots, 2 DAT” value is 77.18%; the “% Reduction from pre-treatment count, Mean of plots, 5 DAT” value is listed as 85.08a, b %; the “% Reduction from pre-treatment count, Mean of plots, 6 DAT” value is on record as 84.83%. For the same molecule, in data set [1] (mean of plots 1-4), the “% Reduction from pre-treatment count, Mean of plots, 7 DAT” value is reported as 77.88% and the “% Reduction from pre-treatment count, Mean of plots, 14 DAT” value is listed as 82.08%. Moreover, in data set [1] (per plot, single spray), the “% Reduction from pre-treatment count (mean of 3 plants), 2 DAT” value is 55.1% and 92.9% and 64.4% and 96.3%; the “% Reduction from pre-treatment count (mean of 3 plants), 5 DAT” value is 75.0% and 78.6% and 97.8% and 88.9%; the “% Reduction from pre-treatment count (mean of 3 plants), 6 DAT” value was 84.6% and 64.3% and 97.8% and 92.6%; the “% Reduction from pre-treatment count (mean of 3 plants), 14 DAT” value was 97.8% and 78.6% and 77.8% and 74.1%.
With `CCc1c(OC)oc(CCCCCCCCCC(C)=O)c(C)c1=O` [Fraction 42, 10′-oxopodopyrone], the mortality at 1 % strength came to 0% in data set [2] (read-out: Corrected percentage mortality Helicoverpa 24 HAT), 0% in data set [2] (read-out: Corrected percentage mortality Helicoverpa 48 HAT), 100% in data set [3] (read-out: Corrected percentage mortality TSM 24 HAT) and 100% in data set [3] (read-out: Corrected percentage mortality TSM 48 HAT).
As for “10′-oxo-8-methyl podopyrone [Fraction 44]”, in data set [2], the “Corrected percentage mortality Helicoverpa 24 HAT” value worked out at 100.0% and the “Corrected percentage mortality Helicoverpa 48 HAT” value was determined as 100.0%. For the same molecule, in data set [3], the “Corrected percentage mortality TSM 24 HAT” value came to 100.0% and the “Corrected percentage mortality TSM 48 HAT” value stood at 100.0%. Besides, in data set [4], the “Corrected percentage mortality Cotton aphid 24 HAT” value came to 100.0%.

A word on the mortality: it is the percentage killed.
